One compound from ChEMBL document CHEMBL4007467, “Effects of 6-paradol, an unsaturated ketone from gingers, on cytochrome P450-mediated drug metabolism” (Bioorg Med Chem Lett, 2017) can be followed below.

Holding throughout (format): ADME
For series [1], the target named is T1, CYP2C9 (Homo sapiens, UniProt P11712). Put plainly: Inhibition of CYP2C9 in human liver microsomes assessed as enzyme-mediated metabolite formation at 10 uM using diclofenac as substrate preincubated for 20 mins followed by substrate addition measured after 30 mins in presence of NADPH by LC-MS/MS analysis relative to control. More on the design: scale not given: the % may be the effect or the level left. The settings on record: probe diclofenac, read-out: Activity. In general terms: Microsomes from liver hold many membrane-bound enzymes, among them those of drug oxidation.
T1 sequence (P11712 whole entry): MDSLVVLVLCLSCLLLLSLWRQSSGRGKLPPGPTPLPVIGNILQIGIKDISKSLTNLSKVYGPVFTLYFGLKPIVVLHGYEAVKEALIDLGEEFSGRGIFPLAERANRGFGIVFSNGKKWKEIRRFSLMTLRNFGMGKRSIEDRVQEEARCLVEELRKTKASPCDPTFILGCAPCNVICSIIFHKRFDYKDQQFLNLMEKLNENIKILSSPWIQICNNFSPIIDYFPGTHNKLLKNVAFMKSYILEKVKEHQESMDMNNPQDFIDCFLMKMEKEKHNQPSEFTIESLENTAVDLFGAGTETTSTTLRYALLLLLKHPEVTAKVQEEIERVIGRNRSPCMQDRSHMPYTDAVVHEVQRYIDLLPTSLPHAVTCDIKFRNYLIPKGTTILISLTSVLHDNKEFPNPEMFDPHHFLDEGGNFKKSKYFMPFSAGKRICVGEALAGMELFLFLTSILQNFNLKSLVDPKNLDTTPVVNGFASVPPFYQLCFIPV

For series [2], the target named is T2, CYP2A6 (Homo sapiens, UniProt P11509).
T2 sequence (P11509 whole entry): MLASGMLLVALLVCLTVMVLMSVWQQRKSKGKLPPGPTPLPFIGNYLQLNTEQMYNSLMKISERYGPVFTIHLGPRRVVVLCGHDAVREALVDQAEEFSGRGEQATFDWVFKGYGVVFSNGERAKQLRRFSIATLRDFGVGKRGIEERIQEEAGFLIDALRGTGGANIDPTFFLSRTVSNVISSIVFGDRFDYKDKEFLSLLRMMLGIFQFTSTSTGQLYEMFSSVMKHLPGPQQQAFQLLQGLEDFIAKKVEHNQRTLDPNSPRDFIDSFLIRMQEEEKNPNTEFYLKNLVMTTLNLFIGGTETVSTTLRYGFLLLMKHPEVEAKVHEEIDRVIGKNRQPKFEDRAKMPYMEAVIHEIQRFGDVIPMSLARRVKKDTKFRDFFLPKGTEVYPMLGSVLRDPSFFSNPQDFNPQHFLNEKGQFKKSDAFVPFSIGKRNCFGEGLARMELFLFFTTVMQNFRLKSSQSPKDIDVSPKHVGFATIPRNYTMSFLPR
Put plainly: Inhibition of CYP2A6 in human liver microsomes assessed as enzyme-mediated metabolite formation at 10 uM using coumarin as substrate incubated for 5 mins followed by NADPH addition measured after 30 mins by LC-MS/MS analysis relative to control. More on the design: scale not given: the % may be the effect or the level left. The settings on record: probe coumarin, read-out: Activity.

The target in series [3] is CYP2D6 (Homo sapiens, UniProt P10635). Put plainly: Inhibition of CYP2D6 in human liver microsomes assessed as enzyme-mediated metabolite formation at 3 uM using dextromethorphan as substrate incubated for 5 mins followed by NADPH addition measured after 30 mins by LC-MS/MS analysis relative to control. More on the design: scale not given: the % may be the effect or the level left. The settings on record: probe dextromethorphan, read-out: Activity.
Sequence of CYP2D6 (P10635 whole entry): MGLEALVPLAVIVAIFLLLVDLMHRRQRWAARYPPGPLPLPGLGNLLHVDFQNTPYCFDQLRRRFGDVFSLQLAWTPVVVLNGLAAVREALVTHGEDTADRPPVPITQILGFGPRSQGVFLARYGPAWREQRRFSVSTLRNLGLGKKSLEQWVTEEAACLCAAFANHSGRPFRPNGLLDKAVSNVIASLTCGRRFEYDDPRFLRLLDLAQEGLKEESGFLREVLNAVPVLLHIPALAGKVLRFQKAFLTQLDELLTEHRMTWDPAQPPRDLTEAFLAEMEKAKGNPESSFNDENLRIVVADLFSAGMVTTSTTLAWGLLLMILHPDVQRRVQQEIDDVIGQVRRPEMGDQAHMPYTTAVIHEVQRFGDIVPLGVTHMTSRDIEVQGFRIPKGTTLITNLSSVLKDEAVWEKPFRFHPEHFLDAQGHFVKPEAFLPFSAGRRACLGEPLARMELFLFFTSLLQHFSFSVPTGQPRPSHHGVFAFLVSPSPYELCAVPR

The target of series [4] is T3, CYP3A4 (Homo sapiens, UniProt P08684). The experiment in a line: Inhibition of CYP3A4 in human liver microsomes assessed as enzyme-mediated metabolite formation at 10 uM using midazolam as substrate preincubated for 20 mins followed by substrate addition measured after 30 mins in presence of NADPH by LC-MS/MS analysis relative to control. More on the design: scale not given: the % may be the effect or the level left. The settings on record: probe midazolam, read-out: Activity.
T3 sequence (P08684 whole entry): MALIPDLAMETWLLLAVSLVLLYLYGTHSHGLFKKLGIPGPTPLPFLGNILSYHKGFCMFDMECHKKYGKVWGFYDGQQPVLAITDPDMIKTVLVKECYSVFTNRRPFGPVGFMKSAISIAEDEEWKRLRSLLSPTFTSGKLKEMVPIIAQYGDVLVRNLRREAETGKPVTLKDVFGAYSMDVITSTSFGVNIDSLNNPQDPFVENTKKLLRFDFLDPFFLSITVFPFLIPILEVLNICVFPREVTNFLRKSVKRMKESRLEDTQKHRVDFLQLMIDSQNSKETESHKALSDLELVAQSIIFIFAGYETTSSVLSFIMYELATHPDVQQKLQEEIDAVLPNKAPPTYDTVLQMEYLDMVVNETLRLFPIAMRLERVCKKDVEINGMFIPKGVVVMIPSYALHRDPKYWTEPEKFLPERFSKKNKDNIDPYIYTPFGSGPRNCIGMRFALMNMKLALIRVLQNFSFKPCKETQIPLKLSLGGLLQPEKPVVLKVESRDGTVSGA

The target in series [5] is T4, Cytochrome P450 2C8 (Homo sapiens, UniProt P10632).
T4 sequence (P10632 whole entry): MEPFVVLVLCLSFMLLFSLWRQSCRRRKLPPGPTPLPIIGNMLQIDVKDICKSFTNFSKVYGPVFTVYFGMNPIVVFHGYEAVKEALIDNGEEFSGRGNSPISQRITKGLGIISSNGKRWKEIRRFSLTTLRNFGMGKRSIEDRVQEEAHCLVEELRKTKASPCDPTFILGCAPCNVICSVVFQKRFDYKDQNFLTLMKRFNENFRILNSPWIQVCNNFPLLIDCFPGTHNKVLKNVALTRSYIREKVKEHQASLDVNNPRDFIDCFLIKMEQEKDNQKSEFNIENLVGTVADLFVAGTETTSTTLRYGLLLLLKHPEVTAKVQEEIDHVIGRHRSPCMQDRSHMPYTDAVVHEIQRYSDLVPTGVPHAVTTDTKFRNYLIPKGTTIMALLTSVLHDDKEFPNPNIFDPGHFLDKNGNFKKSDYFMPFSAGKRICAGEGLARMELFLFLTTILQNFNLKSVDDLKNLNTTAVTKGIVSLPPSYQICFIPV
Put plainly: Inhibition of CYP2C8 in human liver microsomes using paclitaxel as substrate preincubated for 20 mins followed by substrate addition measured after 30 mins in presence of NADPH by LC-MS/MS analysis.

Series [6] addresses T3, CYP3A4. Put plainly: Inhibition of CYP3A4 in human liver microsomes assessed as enzyme-mediated metabolite formation at 0.3 uM using midazolam as substrate preincubated for 20 mins followed by substrate addition measured after 30 mins in presence of NADPH by LC-MS/MS analysis relative to control. Also noted: scale not given: the % may be the effect or the level left. The settings on record: probe midazolam, read-out: Activity.

The target in series [7] is T1, CYP2C9. Put plainly: Inhibition of CYP2C9 in human liver microsomes assessed as enzyme-mediated metabolite formation at 0.1 uM using diclofenac as substrate preincubated for 20 mins followed by substrate addition measured after 30 mins in presence of NADPH by LC-MS/MS analysis relative to control. More on the design: scale not given: the % may be the effect or the level left. The settings on record: probe diclofenac, read-out: Activity.

In series [8] the target is T5, Cytochrome P450 1A2 (Homo sapiens, UniProt P05177).
T5 sequence (P05177 whole entry): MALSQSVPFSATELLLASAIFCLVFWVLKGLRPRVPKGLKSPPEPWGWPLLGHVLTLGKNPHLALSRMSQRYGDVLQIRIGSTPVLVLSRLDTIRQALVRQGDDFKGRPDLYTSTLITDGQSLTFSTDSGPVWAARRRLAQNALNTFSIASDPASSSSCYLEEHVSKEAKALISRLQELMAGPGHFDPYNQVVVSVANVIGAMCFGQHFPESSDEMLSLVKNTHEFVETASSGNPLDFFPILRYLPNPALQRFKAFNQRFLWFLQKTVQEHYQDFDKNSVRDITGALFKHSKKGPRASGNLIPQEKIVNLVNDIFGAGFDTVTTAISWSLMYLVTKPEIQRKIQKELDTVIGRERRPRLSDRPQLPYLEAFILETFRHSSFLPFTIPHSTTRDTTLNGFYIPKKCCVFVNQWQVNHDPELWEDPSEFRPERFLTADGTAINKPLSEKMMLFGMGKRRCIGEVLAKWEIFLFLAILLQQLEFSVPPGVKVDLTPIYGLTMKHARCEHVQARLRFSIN
The experiment in a line: Inhibition of CYP1A2 in human liver microsomes assessed as enzyme-mediated metabolite formation using phenacetin as substrate incubated for 5 mins followed by NADPH addition measured after 30 mins by LC-MS/MS analysis.

Series [9] concerns the target T6, CYP2B6 (Homo sapiens, UniProt P20813).
T6 sequence (P20813 whole entry): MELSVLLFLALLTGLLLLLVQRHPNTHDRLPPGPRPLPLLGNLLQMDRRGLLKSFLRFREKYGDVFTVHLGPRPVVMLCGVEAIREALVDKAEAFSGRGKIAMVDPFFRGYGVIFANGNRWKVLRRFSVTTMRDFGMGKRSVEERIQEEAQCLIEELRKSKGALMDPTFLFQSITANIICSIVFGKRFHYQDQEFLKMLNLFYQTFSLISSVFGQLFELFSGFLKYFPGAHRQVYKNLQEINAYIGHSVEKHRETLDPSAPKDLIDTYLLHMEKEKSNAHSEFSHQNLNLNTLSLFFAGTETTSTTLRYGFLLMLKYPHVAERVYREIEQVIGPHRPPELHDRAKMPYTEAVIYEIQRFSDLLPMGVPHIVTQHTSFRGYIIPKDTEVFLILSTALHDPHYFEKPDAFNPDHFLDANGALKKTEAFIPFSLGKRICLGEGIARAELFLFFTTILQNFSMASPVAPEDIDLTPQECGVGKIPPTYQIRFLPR
The experiment in a line: Inhibition of CYP2B6 in human liver microsomes assessed as enzyme-mediated metabolite formation at 0.1 uM using bupropion as substrate preincubated for 20 mins followed by substrate addition measured after 30 mins in presence of NADPH by LC-MS/MS analysis relative to control. More on the design: scale not given: the % may be the effect or the level left. The conditions noted are these: probe bupropion, read-out: Activity.

On to `CCCCCCCC(=O)CCc1ccc(O)c(OC)c1`, for which the activity at 0.5 h, 10 µM in [1] is 60.8%; in series [2], 81.5%; in [4], 110%. In addition, the activity at 0.5 h, 3 µM in series [3] was 74.6%. Moreover, the IC50 in series [5] is 8.3 µM; in [8] it was 7.1 µM. The activity at 0.5 h, 0.3 µM in [6] was 88.9%. Moreover, the figures for the activity at 0.5 h, 0.1 µM in [7] and in series [9] were 76% and 88.5%, respectively.

What is called IC50 is the midpoint of a concentration-inhibition curve.
